Reference: patent US5025027A, “Cyclic carbamate analogues of (+)-pilocarpine” (Regents of the University of California, priority 1989, dated 1991)
pEC50: −log10 of the molar value.

Assays:
[1] = cited from earlier work; for activity of pilocarpine analogues (in words): less active than pilocarpine; for pharmacological activity (in words): products of lactone cleavage or epimerization of pilocarpine
[2] = target: T1, muscarinic receptors (Cavia porcellus, UniProt H0W1Z3); assay: Guinea pig ileum bioassay (isotonic contractions); details: for muscarinic agonist activity (in words) / pEC50 / potency compared with pilocarpine (in words): guinea pig ileum; for muscarinic agonist activity (in words) / pEC50: in vitro; for pEC50: read-out: ED50 (the source's name); for potency compared with pilocarpine (in words): relative to pilocarpine; for contractions of guinea pig ileum (FIG. 1), in words: single doses, 9, 10, 8 in increasing order of potency
T1 construct: a distal portion of guinea pig ileum was cut and a segment (1-1.5 cm) was tied at both ends; from tissue; host or cells: guinea pig distal ileum segment (isolated organ bath)
T1 sequence (H0W1Z3 1-590): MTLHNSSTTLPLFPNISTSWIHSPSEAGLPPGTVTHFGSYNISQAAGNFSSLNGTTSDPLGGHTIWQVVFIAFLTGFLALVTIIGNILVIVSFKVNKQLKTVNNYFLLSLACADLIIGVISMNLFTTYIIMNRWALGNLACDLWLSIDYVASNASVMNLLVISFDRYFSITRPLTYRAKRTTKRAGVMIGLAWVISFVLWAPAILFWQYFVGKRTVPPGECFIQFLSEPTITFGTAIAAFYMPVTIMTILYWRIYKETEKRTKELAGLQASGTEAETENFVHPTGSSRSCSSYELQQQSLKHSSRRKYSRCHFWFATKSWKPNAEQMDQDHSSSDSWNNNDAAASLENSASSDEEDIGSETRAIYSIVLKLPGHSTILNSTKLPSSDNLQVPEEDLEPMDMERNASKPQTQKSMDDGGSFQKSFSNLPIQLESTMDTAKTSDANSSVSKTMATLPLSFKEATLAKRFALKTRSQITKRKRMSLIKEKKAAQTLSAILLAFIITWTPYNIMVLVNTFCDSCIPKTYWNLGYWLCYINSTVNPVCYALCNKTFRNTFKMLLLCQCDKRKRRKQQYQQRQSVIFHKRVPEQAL
Method: Guinea Pig Ileum Bioassay. Briefly, a distal portion of guinea pig ileum was cut and a segment (1-1.5 cm) was tied at both ends. One end was connected to a force displacement transducer and the other end to the muscle holder in a 5 ml organ bath. […] After the tissue was allowed to equilibrate for 45-60 minutes, single doses of agonists were administered into the bath and isotonic contractions were recorded on a Grass polygraph.

[3] = cited from earlier work

SMILES	muscarinic agonist activity (in words) [2]	pEC50 [2]	potency compared with pilocarpine (in words) [2]	contractions of guinea pig ileum (FIG. 1), in words [2]	other results
CC[C@@H]1C(=O)OC[C@@H]1Cc1cn(C)cn1 [neopilocarpine]					activity of pilocarpine analogues (in words) [1]: less active
CC[C@@H]1C(=O)OC[C@@H]1Cc1cnc[nH]1 [pilocarpidine]					activity of pilocarpine analogues (in words) [1]: less active
CC[C@H]1C(=O)OC[C@@H]1Cc1cncn1C [isopilocarpine]					pharmacological activity (in words) [1]: essentially pharacologically inactive
CCN1C(=O)OC[C@@H]1Cc1cn(Cc2ccccc2)cn1 [Compound 6, (S)-3-Ethyl-4-(1,'-benzyl-4'-imidazolyl)methyl-2-oxazolidinone]	inactive				
CC[C@H](C(=O)O)[C@H](CO)Cc1cncn1C [pilocarpic acid]					pharmacological activity (in words) [1]: essentially pharacologically inactive
CCN1C(=O)OC[C@@H]1Cc1cn(C)cn1 [Compound 10, (S)-3-Ethyl-4-(1'-methyl-4'-imidazolyl)methyl-2-oxazolidinone]	weaker muscarinic agonists	4.85	less active	cholinergic muscarinic agonists	
CC[C@@H]1C(=O)OC[C@@H]1Cc1cncn1C [pilocarpine]					side effects on administration for long periods (in words) ([3]; administered for long periods): without side effects; effect on intraocular pressure (in words) ([3]; narrow and wide angle glaucoma): decreases the intraocular pressure; duration of intraocular pressure lowering ([3]; topical miotic): about three; duration of biological activity (in words) ([1]; due to hydrolytic cleavage of the lactone ring and/or epimerization): short duration of biological activity
CCN1C(=O)OC[C@@H]1Cc1c[n+](Cc2ccccc2)cn1C [Compound 7]	inactive				
CCN1C(=O)OC[C@@H]1Cc1c[nH]cn1 [Compound 9, (S)-3-Ethyl-4-(4'-imidazolyl)methyl-2-oxazolidinone]	weaker muscarinic agonists	3.74	less active	cholinergic muscarinic agonists	
CCN1C(=O)OC[C@@H]1Cc1cncn1C [Compound 8, (S)-3-Ethyl-4-(1'-methyl-5'-imidazolyl)methyl-2-oxazolidinone]		6.00	equipotent with pilocarpine	cholinergic muscarinic agonists	log concentration-response curves (in words) ([2]; pilocarpine and 8 compared): parallel log concentration-response curves
